Read-outs that look alike come from different tables or passages of the source.
Columns and labels:
TcPMT = TcPMT (Toxocara canis, UniProt A0A0B2VTW9); experiment: biochemical; format: biochemical; conditions: for Selectivity index (SI) TcPMT: IC50^Cytotoxicity/IC50^Enzyme
Procedure: (§1) The chemical compounds were obtained from the National Cancer Institute/Developmental Therapeutics Program Open Chemical Repository. […] Compounds were individually reconstituted in molecular biology grade dimethyl sulfoxide (DMSO) from Sigma-Aldrich to a stock concentration of 10 mM and stored at −20°C until use. Initial screening was conducted using recombinant HcPMT1 protein as enzyme in the methyltransferase assay, with test compounds at a final concentration of 40 μM. […] To the positive reaction mixture, instead of test compound, an equivalent volume of DMSO was added. In the negative-control reaction mixture, instead of HcPMT1 and test compound, equivalent volumes of 1× transferase buffer and DMSO, respectively, were added. Detection buffer (100 μL) containing fluorescence substrate was added into each reaction mixture. The reactions were prepared in triplicate wells in 96-well plates. The plates were covered in aluminum foil and incubated at room temperature with agitation for 30 min, followed by reading the fluorescence at 380EX/520EM. The mean percent inhibition (MPI) of the test compound on enzymatic activity was calculated using the following formula: MPI = ΔRFUpositive control − ΔRFUcompounds/ΔRFUpositive control × 100, where the positive control is a reaction without compound but with recombinant PMT protein and a volume of DMSO equivalent to that of compound used in test reactions; the negative control is the reaction without protein and compounds, but with volumes of dialysis buffer and DMSO equivalent to protein and compound added in the test reaction mixtures, respectively; ΔRFUpositive control represents the absolute relative fluorescence units (RFU) for the positive control, which equals RFUpositive control – RFUnegative control; and ΔRFUcompounds represents the absolute RFU value for the sample with the compounds, which equals RFUcompounds – RFUnegative control.
(§2) The enzymatic assay was set up as described above, with the respective PMT protein as enzyme.

DvPMT1 = DvPMT1 (Dictyocaulus viviparus, UniProt A0A0D8Y714); experiment: biochemical; format: biochemical; conditions: for Selectivity index (SI) DvPMT1: IC50^Cytotoxicity/IC50^Enzyme
Chain of DvPMT1 (A0A0D8Y714 entry or part of it): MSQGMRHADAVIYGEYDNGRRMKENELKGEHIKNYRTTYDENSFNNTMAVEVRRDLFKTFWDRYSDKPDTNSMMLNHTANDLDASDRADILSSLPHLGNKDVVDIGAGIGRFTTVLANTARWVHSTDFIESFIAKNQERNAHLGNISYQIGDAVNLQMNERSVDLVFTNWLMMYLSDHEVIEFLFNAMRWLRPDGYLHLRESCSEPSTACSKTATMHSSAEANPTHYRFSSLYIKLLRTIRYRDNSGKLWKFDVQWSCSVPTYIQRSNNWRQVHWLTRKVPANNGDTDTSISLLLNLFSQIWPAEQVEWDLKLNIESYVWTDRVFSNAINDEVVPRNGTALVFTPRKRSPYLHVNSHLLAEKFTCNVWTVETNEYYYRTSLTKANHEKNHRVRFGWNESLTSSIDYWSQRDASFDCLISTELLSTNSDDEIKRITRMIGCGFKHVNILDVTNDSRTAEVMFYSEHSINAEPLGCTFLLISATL
Procedure: as §1, §2

[1] = tested on: PMT-complemented mutant yeast; experiment: Growth inhibition of complemented yeast (statement on PMT-complemented strains together); format: cell-based, Saccharomyces cerevisiae; conditions: various concentrations
Procedure: (§3) To determine the effect of PMT inhibitors on the growth of PMT- and LacZ-complemented pem1Δpem2Δ S. cerevisiae, the yeast cells were first starved of choline as described above, and the cells were diluted to an OD600 of ~0.6. The PMT-complemented yeast cells were cultured in SG medium (3.4g/L yeast nitrogen base without amino acids, 2% galactose, 30 mg/L histidine, 100 mg/L leucine, 100 mg/L adenine, and 50 mg/L tryptophan) supplemented with 1 mM ethanolamine hydrochloride, while the LacZ-complemented yeast cells were cultured in SG medium supplemented with 1 mM choline chloride. Compounds that depicted cross-inhibitory activity against PMT proteins in vitro were added at various concentrations to the cultures. As a negative control, DMSO (at a final concentration not exceeding 2% [vol/vol]) was added to yeast cultures designated control cultures. The cultures were incubated at 30°C with shaking at 275 rpm for 4 days. On a daily basis during the course of culture, 200-μL portions of culture aliquots were taken, and their OD600s were measured using a microplate reader. In preliminary work, we had observed that the growth of PMT- and LacZ-complemented pem1Δpem2Δ S. cerevisiae plateaued at 3 to 4 days of culture. Therefore, to determine the inhibitory effect of nematode PMT inhibitors on the growth of PMT- and LacZ-complemented pem1Δpem2Δ S. cerevisiae, measurements taken on day 3 were used. The results were presented as percentage of growth rate using the following formula: PGR = growth rate (plus inhibitor)/growth rate (minus inhibitor) × 100 where the percent growth rate (PGR) is the growth rate of inhibitor-treated PMT- or LacZ- complemented Pem1Δpem2Δ S. cerevisiae, considering the growth rate of untreated PMT- or LacZ- complemented Pem1Δpem2Δ S. cerevisiae is 100%; the growth rate = ΔA600^Day 3/ΔA600^Day 0; ΔA600^Day 0 is the absolute value of A600 of PMT- or LacZ- complemented pem1Δ/pem2Δ S. cerevisiae at day 0, which equals the A600 of the culture minus the A600 of the growth medium only; ΔA600^Day 3 is the absolute value of the A600 of PMT- or LacZ complemented pem1Δ/pem2Δ S. cerevisiae at day 3, which equals the A600 of the culture at day 3 minus the A600 of growth medium only; the growth rate (plus inhibitor) is the growth rate of PMT- or -LacZ complemented pem1Δpem2Δ S. cerevisiae in the presence of test compound; and the growth rate (minus inhibitor) is the growth rate of the PMT- or LacZ complemented pem1Δ/pem2Δ S. cerevisiae in the absence of test compound, but with a volume of DMSO equal to that of compound added in the treated culture. The dose-response curves were generated with GraphPad Prism software and IC50 concentrations of the compounds in PMT- and LacZ-complemented yeast cells derived.

[2] = tested on: AsPMT-complemented pem1Δ/pem2Δ S. cerevisiae; experiment: Growth inhibition of complemented yeast; format: cell-based, Saccharomyces cerevisiae; conditions: medium with ethanolamine, no choline, day 3, read-out: Mean growth inhibition EC50 ± SEM on complemented yeast, AsPMT
Procedure: as §3

[3] = tested on: HcPMT1+2-complemented pem1Δ/pem2Δ S. cerevisiae; experiment: Growth inhibition of complemented yeast; format: cell-based, Saccharomyces cerevisiae; conditions: read-out: Mean growth inhibition EC50 ± SEM on complemented yeast, HcPMT1+2
Procedure: as §3

[4] = tested on: LacZ-complemented pem1Δ/pem2Δ S. cerevisiae; experiment: Growth inhibition of complemented yeast; format: cell-based, Saccharomyces cerevisiae; conditions: for EC50: Saccharomyces cerevisiae, 72 h, read-out: Mean growth inhibition EC50 ± SEM on complemented yeast, LacZ; for effect on LacZ-expressing mutant yeast: medium with choline
Procedure: as §3

[5] = tested on: DvPMT1+2-complemented pem1Δ/pem2Δ S. cerevisiae; experiment: Growth inhibition of complemented yeast; format: cell-based, Saccharomyces cerevisiae; conditions: read-out: Mean growth inhibition EC50 ± SEM on complemented yeast, DvPMT1+2
Procedure: as §3

[6] = tested on: AcPMT1+2-complemented pem1Δ/pem2Δ S. cerevisiae; experiment: Growth inhibition of complemented yeast; format: cell-based, Saccharomyces cerevisiae; conditions: read-out: Mean growth inhibition EC50 ± SEM on complemented yeast, AcPMT1+2
Procedure: as §3

[7] = tested on: TcPMT-complemented pem1Δ/pem2Δ S. cerevisiae; experiment: Growth inhibition of complemented yeast; format: cell-based, Saccharomyces cerevisiae; conditions: read-out: Mean growth inhibition EC50 ± SEM on complemented yeast, TcPMT
Procedure: as §3

[8] = tested on: OdPMT-complemented pem1Δ/pem2Δ S. cerevisiae; experiment: Growth inhibition of complemented yeast; format: cell-based, Saccharomyces cerevisiae; conditions: read-out: Mean growth inhibition EC50 ± SEM on complemented yeast, OdPMT
Procedure: as §3

AsPMT = AsPMT (Ascaris suum, UniProt F1L4B9); format: biochemical; conditions: for Selectivity index (SI) AsPMT: IC50^Cytotoxicity/IC50^Enzyme; for IC50: read-out: Mean IC50 ± SEM, Enzyme AsPMT;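 for Selectivity index (SI) AsPMT: cytotoxicity IC50 measured in HCT-8 cells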
Chain of AsPMT (F1L4B9 entry or part of it): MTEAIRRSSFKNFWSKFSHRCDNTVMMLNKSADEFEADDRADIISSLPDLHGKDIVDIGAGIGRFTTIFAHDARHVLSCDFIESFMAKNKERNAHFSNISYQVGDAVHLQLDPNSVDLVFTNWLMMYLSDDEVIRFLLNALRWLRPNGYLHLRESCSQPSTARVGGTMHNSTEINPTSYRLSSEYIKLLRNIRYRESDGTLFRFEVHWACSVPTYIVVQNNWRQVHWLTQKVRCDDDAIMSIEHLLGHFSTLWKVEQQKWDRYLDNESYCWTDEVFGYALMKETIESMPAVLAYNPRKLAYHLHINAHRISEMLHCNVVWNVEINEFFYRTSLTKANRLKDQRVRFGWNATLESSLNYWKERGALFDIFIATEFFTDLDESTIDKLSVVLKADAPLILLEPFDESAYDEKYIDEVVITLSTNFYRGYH
Procedure: as §1, §2

[9] = read-out: Mean IC50 ± SEM, Enzyme TcPMT
[10] = read-out: Mean IC50 ± SEM, Enzyme DvPMT1
[11] = medium with ethanolamine, no choline, day 3
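Throughout, for Selectivity index (SI) DvPMT1: cytotoxicity IC50 measured in HCT-8 cells.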
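Throughout, for Selectivity index (SI) TcPMT: cytotoxicity IC50 measured in HCT-8 cells.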

Chain of TcPMT (A0A0B2VTW9 entry or part of it): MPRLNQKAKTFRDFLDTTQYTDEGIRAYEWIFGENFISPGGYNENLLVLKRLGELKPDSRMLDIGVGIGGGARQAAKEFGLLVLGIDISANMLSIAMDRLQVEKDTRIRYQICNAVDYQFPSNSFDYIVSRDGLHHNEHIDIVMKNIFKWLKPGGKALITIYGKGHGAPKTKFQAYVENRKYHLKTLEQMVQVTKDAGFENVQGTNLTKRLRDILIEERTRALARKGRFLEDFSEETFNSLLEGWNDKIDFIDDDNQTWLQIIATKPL

| SMILES | Selectivity index (SI) TcPMT (TcPMT) | IC50 (TcPMT; [9]) [µM] | Selectivity index (SI) DvPMT1 (DvPMT1) | IC50 (DvPMT1; [10]) [µM] | effect on the growth of PMT-complemented mutant yeast [1] | EC50 ([2]; Saccharomyces cerevisiae, 72 h) [µM] | EC50 ([3]; Saccharomyces cerevisiae, 72 h) [µM] | EC50 [4] [µM] | effect on LacZ-expressing mutant yeast [4] | EC50 ([5]; Saccharomyces cerevisiae, 72 h) [µM] | EC50 ([6]; Saccharomyces cerevisiae, 72 h) [µM] | EC50 ([7]; Saccharomyces cerevisiae, 72 h) [µM] | Selectivity index (SI) AsPMT (AsPMT) | IC50 (AsPMT) [µM] | EC50 [2] [µM] | EC50 [3, 11] [µM] | EC50 [5, 11] [µM] | EC50 [6, 11] [µM] | EC50 [7, 11] [µM] | EC50 [8, 11] [µM] | other results |
| --- | --- | --- | --- | --- | --- | --- | --- | --- | --- | --- | --- | --- | --- | --- | --- | --- | --- | --- | --- | --- | --- |
| O=c1c(O)cccc2cc(O)c(O)c(O)c12 [NSC35676, purpurogallin] | 12.35 | 45.9 ± 2.9 | 13.44 | 42.1 ± 3.16 | concentration-dependent inhibitory effect | 15.1 ± 0.7 | 5.45 ± 0.95 | 6.02 ± 0.25 | no or negligible inhibitory effect | 12.9 ± 1.58 | 17.6 ± 3.72 | 22.9 ± 5 | 45.59 | 12.4 ± 1.1 | – | – | – | – | – | – | EC50 ([8]; Saccharomyces cerevisiae, 72 h): 3.98 ± 1.08 µM |
| CO[C@@]12[C@H](COC(N)=O)C3=C(C(=O)C(C)=C(N)C3=O)N1C[C@H]1[C@@H]2N1C (stereo partly drawn) [NSC56410] | 2.23 | – | 0.10 | – | concentration-dependent inhibitory effect | 50.7 ± 3.87 | 1.48 ± 0.21 | 50.4 ± 13.2 | no or negligible inhibitory effect | 45.6 ± 7.61 | 40.3 ± 9.42 | 45.1 ± 3.97 | 3.24 | 58.1 ± 12.9 | – | – | – | – | – | – | IC50 (TcPMT): 84.5 ± 6.53 µM; IC50 (DvPMT1): 1920 µM; EC50 ([8]; Saccharomyces cerevisiae, 72 h): 37.6 ± 4.87 µM |
| COc1ccc(-c2c(C)c(C(=O)O)nc(-c3ccc4c(O)c(OC)c5c(c4n3)=NC(C)(C)N=5)c2N)c(O)c1OC [NSC62709] | 10.83 | 27.6 ± 1.26 | 10.24 | 29.2 ± 2.13 | concentration-dependent inhibitory effect | – | – | – | no or negligible inhibitory effect | – | – | – | 6.75 | 44.3 ± 1.35 | 15.4 ± 2.13 | 3.03 ± 0.26 | 25.6 ± 5.07 | 26.9 ± 7.63 | 29.8 ± 7.61 | 19.5 ± 2.56 | – |
| COc1cc(C)c2c(c1C=O)Oc1c(c(C)c(O)c3c1C(O)OC3=O)OC2=O (stereo not drawn) [NSC87511] | 0.35 | 496 ± 184 | 0.34 | 504 ± 188 | concentration-dependent inhibitory effect | – | – | – | no or negligible inhibitory effect | – | – | – | 0.97 | 177 ± 15.6 | 25.9 ± 1.24 | 2.08 ± 0.29 | 17.1 ± 1.15 | 26.4 ± 3.45 | 58.2 ± 7 | 57.9 ± 5.18 | – |
| CO[C@H]1/C=C/O[C@@]2(C)Oc3c(C)c(O)c4c(O)c(cc(O)c4c3C2=O)NC(=O)/C(C)=C\C=C\[C@H](C)[C@H](O)[C@@H](C)[C@@H](O)[C@@H](C)[C@H](OC(C)=O)[C@@H]1C [NSC133100] | 1.03 | 99.1 ± 9 | 1.15 | 88.2 ± 4.14 | concentration-dependent inhibitory effect | – | – | – | no or negligible inhibitory effect | – | – | – | 3.00 | 34 ± 2.85 | 23.4 ± 1.85 | 18.7 ± 2.07 | 35.7 ± 3.67 | 35.1 ± 5.01 | 60.1 ± 5.85 | 36.6 ± 8.4 | – |
| CO[C@@H]1/C=C/O[C@@]2(C)Oc3c(C)c(O)c4c(c3C2=O)C(=N[C@@H]2CC[C@@H](O)O[C@H]2C)C=C(NC(=O)/C(C)=C\C(=O)[C@@H]2C[C@@H]2[C@H](O)[C@@H](C)[C@@H](O)[C@@H](C)[C@H](OC(C)=O)[C@@H]1C)C4=O [NSC177383] | 2.07 | 41.3 ± 2.8 | 1.80 | 47.6 ± 7.41 | – | – | – | – | – | – | – | – | 3.47 | 24.6 ± 1.79 | 12.3 ± 1.11 | 6.11 ± 1.84 | 15.4 ± 1.91 | 21.9 ± 7.31 | 11.8 ± 1.43 | 19.8 ± 3.9 | – |

Reference: PMC10269165 (Antimicrobial Agents and Chemotherapy, 2023)
